Structures can show the parent of a compound that is named as a salt.
How the values were obtained:
[1] = test system: skin (back of hand), stratum corneum; assay: skin flakiness by D-Squame Discs Method and Image Analysis; type: in vivo, human; conditions: 0.5% cholesterol sulfate in a water and oil emulsion base, right hand, twice a day
Experimental: A study is conducted to determine the effect of cholesterol sulfate on skin flakiness, as an indicator of its effect in reducing desquamation. Fifteen subjects between the ages of 21 and 65 years are selected for the study. The subjects report for the study without moisturizers or any other products on their hands and their baseline measurements are taken. The subjects are given a product containing 0.5% cholesterol sulfate in a water and oil emulsion base to take home and self-administer on their right hands only, twice a day in the morning after washing and in the evening at least 15 minutes before bedtime for four weeks. The left hand serves as the untreated control site. The subjects are only allowed to use the test product and specifically log its use in a daily diary. At the end of two and four weeks the subjects return for testing without applying the product for at least 12 hours and they are re-evaluated under the same conditions.
Evaluation of flakiness is determined via the D-Squame Discs Method and Image Analysis. Briefly, four D-Squame discs are firmly pressed on the back of each hand with hand held uniform pressure device and removed by gently pulling away from the skin. […] Desquamation is evaluated from the D-Squame discs via the image analyzer. […]
An OPTIMA image analyzer is used to evaluate skin flakiness. […] The average Gray Value corresponding to the sample density is measured. […]

[2] = test system: Matek skin equivalents; assay: stratum corneum thickness and cohesion in skin equivalents (histology); type: cell-based
Experimental: FIG. 1 illustrates the condition of stratum corneum thickness under different cholesterol sulfate treatment regimens, as described in Example I: (A) control (no treatment); (B) 1% ethanol vehicle control; (C) cholesterol sulfate, 0.01 μg/ml; (D) cholesterol sulfate, 0.1 μg/ml; (E) cholesterol sulfate, 1 μg/ml; (F) cholesterol sulfate 10 μg/ml.
This example illustrates the ability of cholesterol sulfate to retard desquamation and maintain stratum corneum thickness.
Matek skin equivalents are obtained and prepared for use in accordance with the supplier's protocol. Equilibrated skins are treated topically with dilutions of cholesterol sulfate. Cholesterol sulfate is solubilized 1 mg/ml in ethanol, and serially diluted 10-fold to yield doses of 0.01, 0.1, 1 and 10 μg/ml. Each dose is added topically to an equivalent, using a 100 μl volume. Treatment is repeated daily along with media replacement over a three day period. One sample is treated with 1% ethanol, representing a vehicle control. Following treatment, equivalents are fixed according to standard protocol, and sent for histological preparations. FIGS. 1A-F show stained sections of the two controls plus the treatment samples. […] Some compaction is seen in the ethanol treated sample, which is believed due to dehydration of the sample combined with lipid removal.

## CC(C)CCC[C@@H](C)[C@H]1CC[C@H]2[C@@H]3CC=C4C[C@@H](OS(=O)(=O)O)CC[C@]4(C)[C@H]3CC[C@]12C [cholesterol sulfate]
[1]; after 4 weeks
  decrease in flakiness relative to baseline: 24.1%
[1]; after two weeks
  decrease in flakiness relative to baseline: 22.5%
[2]; 0.01, 0.1, 1 and 10 μg/ml, 100 μl topically, daily over three days, vs media control, effect increases with amount
  organization and cohesion of the stratum corneum (stained sections): gradual increase in organization and cohesion of the stratum corneum
[2]; application to skin cells, FIGS. 1C-F (0.01-10 μg/ml)
  thickness of the layers of the stratum corneum: distinct, dose-dependent, increase in the thickness

Reference: patent publication US20040028639A1, “Cholesterol sulfate compositions for enhancement of stratum corneum function” (priority 1999, published 2004)
